The test system of experiment [1] is gastric emptying function. Nature of the experiment: Activity for increasing gastric emptying function. It is filed as in vivo, rat (Fischer male). Particulars: oral, one hour before test food, *: minimum effective dose. The procedure:
[Experimental Example 3] Activity for increasing gastric emptying function
This experiment was made according to the method of Decktor et al. [see Eur. J. Pharmacol., 147, 313-316 (1988)]. Fischer male rats (weight: 160 to 180 g) were fasted for 18 hours before 3 ml of a test food comprising methylcellulose, beef bouillon, casein, sugar and corn starch was orally administered to each rat. One hour after the administration, the stomach was extirpated from each rat. The gastric emptying ratio was calculated from the weight of the test food remaining in the stomach. The percentage increment of the gastric emptying function was determined by comparing the gastric emptying ratio of a medicated rat with that of a control rat. Each test compound (5 ml/kg) was orally administered one hour before the administration of the test food. BRL 24924 was used as a control in this experiment.

Experiment [2] concerns the target T1, serotonin 4 (Rattus norvegicus, UniProt Q62758).
T1 construct: The esophagus of a rat was extirpated and freed from the outer tunica propria to obtain the muscular layer of mucosa; from tissue; host or cells: muscular layer of mucosa of rat esophagus
Nature of the experiment: Effect of relaxing the contraction of muscular layer of esophageal mucosa of rat by stimulation with carbachol (activity of serotonin 4 as agonist). It is filed as cell-based. Conditions: 50% relaxation of maximum contraction caused by 1 μM carbachol, cumulative addition, 37° C.; read-out: Effect of relaxing the muscular layer of esophageal mucosa of rat EC50. The procedure:
This experiment was made according to the method of Baxter et al. [see Naunyn-Schmiedeberg's Arch. […] The esophagus of a rat was extirpated and freed from the outer tunica propria to obtain the muscular layer of mucosa. […] A load of 0.5 g was applied to each sample and the reaction was recorded isometrically. 1 μM of carbachol was added to each sample to cause contraction, followed by the cumulative addition thereto of a solution of a test compound. The effect of the test compound was determined as the ratio (%) of relaxation based on the maximum contraction caused by carbachol.

The test system of experiment [3] is cisplatin-induced vomiting. Nature of the experiment: Activity against cisplatin-induced vomiting of beagle. Type of experiment: in vivo. Particulars: through the vein of forefoot, one hour after 3 mg/kg cisplatin, 5-hour period. The procedure:
[Experimental Example 2] Activity against cisplatin-induced vomiting of beagle
Beagles weighing 7 to 12 kg were used. 3 mg/kg of cisplatin (a product of Sigma) (1 ml/kg of physiological saline) was administered to each beagle through the vein of one of its forefeet. One hour after the administration, physiological saline (0.2 ml/kg) was administered to a control group of beagles and a solution of a test compound in physiological saline was administered to a test group of beagles, each through the vein of the other forefoot. The frequency of vomiting observed over a 5-hour period from the administration of cisplatin was recorded and the inhibitory ratio of the test compound was calculated according to the following formula.

Experiment [4] deals with T2, serotonin 3 (Cavia porcellus, UniProt O70212).
T2 construct: from tissue; host or cells: nonterminal ileum of Hartley male guinea pig
T2 sequence (O70212 20-490): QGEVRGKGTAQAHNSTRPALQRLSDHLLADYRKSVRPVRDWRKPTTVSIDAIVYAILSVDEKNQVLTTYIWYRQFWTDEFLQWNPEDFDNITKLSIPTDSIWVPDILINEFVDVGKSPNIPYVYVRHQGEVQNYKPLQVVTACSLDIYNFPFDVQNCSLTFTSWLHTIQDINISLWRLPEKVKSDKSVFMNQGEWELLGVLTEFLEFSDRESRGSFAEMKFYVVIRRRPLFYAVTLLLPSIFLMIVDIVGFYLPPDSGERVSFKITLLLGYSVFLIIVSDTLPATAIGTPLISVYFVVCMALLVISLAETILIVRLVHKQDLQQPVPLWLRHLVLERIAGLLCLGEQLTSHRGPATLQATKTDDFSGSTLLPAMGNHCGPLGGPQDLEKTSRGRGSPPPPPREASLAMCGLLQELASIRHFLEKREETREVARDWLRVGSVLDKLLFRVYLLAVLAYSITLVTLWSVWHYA
Nature of the experiment: Antagonism against 2-methyl-serotonin-induced contraction of ileum (serotonin 3 antagonism). Type of experiment: cell-based, guinea pig (Hartley male). Conditions: guinea pig nonterminal ileum, vs 2-methylserotonin, 30 minutes with test compound, 37° C.; read-out: pA2 (converted). The procedure: [Experimental Example 1] Antagonism against 2-methyl-serotonin-induced contraction of ileum (serotonin 3 antagonism)
This experiment was made according to the method of Sanger et al. [see Eur. J. Pharmacol., 159, 113-124 (1989)]. The nonterminal ileum of a Hartley male guinea pig was suspended in the Krebs solution (37° C.) by applying a load of 0.5 g, and a gaseous mixture comprising 95% of oxygen and 5% of carbon dioxide was passed through the solution. The contraction of the ileum was isometrically determined. After allowing the ileum to stand for one or more hours for stabilization, a solution of a test compound was added to the solution, and after 30 minutes, 2-methylserotonin was noncumulatively added. The pA2 value was calculated from the rightward shift of the dose-response curve of the 2-methylserotonin-induced contraction caused by the test compound according to the method of Rossum et al. [see Arch. Int. Pharmacodyn. 143, 299(1963)]. BRL 24924 (Renzapride) was used as a control in this experiment.
The structural formula of BRL 24924 is as follows: [drawing 19]

T1 sequence (Q62758 whole entry): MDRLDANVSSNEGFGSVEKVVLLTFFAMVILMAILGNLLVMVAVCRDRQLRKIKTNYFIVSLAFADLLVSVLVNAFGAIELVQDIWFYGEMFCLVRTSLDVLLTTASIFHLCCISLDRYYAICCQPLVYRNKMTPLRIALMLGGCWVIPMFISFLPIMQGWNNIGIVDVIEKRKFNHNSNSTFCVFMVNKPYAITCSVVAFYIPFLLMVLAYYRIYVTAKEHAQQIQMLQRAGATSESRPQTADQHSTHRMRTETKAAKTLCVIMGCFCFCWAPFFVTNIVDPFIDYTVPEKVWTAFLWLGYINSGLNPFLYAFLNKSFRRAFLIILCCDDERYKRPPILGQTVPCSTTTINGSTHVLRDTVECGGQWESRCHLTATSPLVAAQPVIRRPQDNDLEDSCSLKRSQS

The EC50 is the midpoint of the concentration-response curve. For the compound `CC#C[C@H](C)Oc1cc(N)c(Cl)cc1C(=O)NC1CCN2CCCC1C2` (single isomer, unassigned) [31 fraction 2], the “Percentage increment of gastric emptying function (%)” value in experiment [1] (0.01 mg/kg) came out at 4.5%; in experiment [1] (0.03 mg/kg) it was 24.6%; in experiment [1] (0.1 mg/kg) it was 25.8%; in experiment [1] (0.3 mg/kg), 33.2%. The EC50 in experiment [2] was 190 nM. The “Inhibitory ratio against cisplatin-induced vomiting (%)” value in experiment [3] (0.03 mg/kg) turned out to be 63%; in experiment [3] (0.1 mg/kg), 92%. The Kb in experiment [4] was 5.01 nM.
For the compound `COc1cc(N)c(Cl)cc1C(=O)NC1CCN2CCCC1C2` (stereo not drawn) [BRL 24924, Renzapride, reference compound], the figures for the “Percentage increment of gastric emptying function (%)” value in experiment [1] (0.1 mg/kg), in experiment [1] (0.3 mg/kg) and in experiment [1] (1 mg/kg) were 1.9%, 6.5% and 18.5%, respectively. Besides, the EC50 in experiment [2] worked out at 300 nM. Besides, the “Inhibitory ratio against cisplatin-induced vomiting (%)” value in experiment [3] (0.03 mg/kg) is reported as 19%; in experiment [3] (0.1 mg/kg) it was 61%. Also, in experiment [4], the Kb was 251 nM.

Values taken from US5658925A, “Aminobenzoic acid derivatives” (Eisai Co., Ltd., priority 1993, dated 1997).
